{
  "source": "patent US20230381176A1",
  "about": "“A PHARMACEUTICAL COMPOSITION AND USE THEREOF FOR TREATMENT OF CANCER” (Ascentage Pharma (Suzhou) Co., Ltd., priority 2020, published 2023)",
  "key": {"[1]": {"system": "TP53wt, BRAFv600E, NRASwt, PTENwt, CDKN2Amut C32 cutaneous melanoma", "experiment": "C32 cutaneous melanoma model, Compound 5 and Dabrafenib + trametinib", "format": "in vivo", "protocol": "In this experiment, a TP53wt , BRAFv600E , NRASwt, PTENwt, CDKN2Amut C32 cutaneous melanoma model (Wuxi Pharma Tech) was established to evaluate the anti-tumor effect of Compound 5 in combination with BRAFi (Dabrafenib)+MEKi (trametinib) (Selleck). The dosing regimen was as follows: • Compound 5: 50 mg/kg, PO QD 21 D, for a total of 25 days; • Dabrafenib +trametinib: Dabrafenib 30mg/kg,QD QD 21 D for a total of 25 days, trametinib 1 mg/kg\nThe dosing regimen of each drug in the dosing regimen for the combination is the same as the dosing regimen for the single drug."}, "[2]": {"system": "PTK2 high ovarian PDX OV2423", "experiment": "PTK2 high ovarian PDX model OV2423, Compound 5 and carboplatin and/or paclitaxel", "format": "in vivo, mouse", "protocol": "(§1) A subcutaneous xenograft tumor model of human tumor immunodeficient mice was established by cell inoculation: tumor cells in logarithmic growth phase were collected, counted, resuspended in 1×PBS, and the cell suspension concentration was adjusted to 2.5-5 ×10^7/mL. The tumor cells were inoculated subcutaneously in the right side of immunodeficient mice with a 1 mL syringe ([…]), 5-10×10^6/0.2 mL/mouse. All animal experiments were strictly in accordance with the specifications for the use and management of experimental animals in GenePharma Co., Ltd. and Suzhou Ascentage Pharma Co., Ltd. The calculation of relevant parameters refers to the Chinese NMPA “Guidelines for Non-Clinical Research Techniques of Cytotoxic Anti-tumor Drugs”.\n(§2) Animal body weight and tumor size were measured twice weekly during the experiment. The state of the animal and the presence or absence of death were observed every day. The growth of tumor and the effects of treatment on normal behavior of animals were monitored routinely, specifically involving experimental animal activity, feeding and drinking, weight gain or loss, eyes, clothing hair and other abnormalities. The deaths and clinical symptoms observed during the experiment were recorded in the raw data. All operations for administration and measurement of mouse body weight and tumor volume were performed in a clean bench. According to the requirements of the experimental protocol, after the end of the last administration, plasma and tumor tissues were collected, weighed and photographed. The plasma and tumor samples were frozen at −80° C. for ready-to-use.\n(§3) Tumor volume (TV) is calculated as: TV=a×b^2/2, wherein a and b represent the length and width of the tumor to be measured, respectively.\n(§4) The relative tumor volume (RTV) is calculated as: RTV=Vt/V1, wherein V1 is the tumor volume at the start of grouping and administration, and Vt is the tumor volume measured on the t day after administration.\n(§5) Change of body weight (%)=(measured body weight−body weight at the start of grouping)/body weight at the start of grouping×100%.\n(§6) A dose of drug is considered to be severely toxic if the body weight of mouse is reduced by more than 20% or the number of drug-related deaths exceeds 20%.\n(§7) According to the description by Clarke R., Issues in experimental design and endpoint analysis in the study of experimental cytotoxic agents in vivo in breast cancer and other models [J]. Breast Cancer Research & Treatment, 1997, 46(2-3): 255-278, synergy analysis was evaluated using the following formula: synergy factor=((A/C)×(B/C))/(AB/C); A=RTV value of drug A alone group; B=RTV value of drug B alone group; C=RTV value of the solvent control group, and AB=RTV value of the A and B combination group.\n(§8) Use of mRECIST (Gao et al., 2015) measured tumor responses included stable disease (SD), partial tumor regression (PR), and complete regression (CR), determined by comparing tumor volume change at day t to its baseline: tumor volume change (%)=(Vt−V1)/V1. The BestResponse was the minimum value of tumor volume change (%) for t≥10. For each time t, the average of tumor volume changes from t=1 to t was also calculated. BestAvgResponse was defined as the minimum value of this average for t≥10. The criteria for response (mRECIST) were adapted from RECIST criteria (Gao et al., 2015; Therasse et al., 2000) and defined as follows: mCR, BestResponse<−95% and BestAvg Response<−40%; mPR, BestResponse<−50% and BestAvgResponse<−20%; mSD, BestResponse<35% and BestAvgResponse<30%; mPD, not otherwise categorized. SD, PR, and CR were considered responders and used to calculate response rate (%). […] Body weight of animals were monitored simultaneously. The change in body weight was calculated based on the animal weight of the first day of dosing (day 1). Tumor volume and changes in body weight (%) were represented as the mean±standard error of the mean (SEM)."}, "[3]": {"system": "ovarian PDX OV1658", "experiment": "Ovarian PDX model OV1658, Compound 5 and carboplatin and/or paclitaxel", "format": "in vivo, mouse", "protocol": "as §1, §2, §3, §4, §5, §6, §7, §8"}, "[4]": {"system": "U-87-MG subcutaneous glioblastoma", "experiment": "U-87-MG subcutaneous glioblastoma model, Compound 5 and Palbociclib", "format": "in vivo", "protocol": "In this experiment, a U-87-MG subcutaneous glioblastoma model (Wuxi Pharma Tech) was established to evaluate the anti-tumor effect of Compound 5 in combination with Palbociclib/Trametinib/TMZ. The dosing regimen was as follows: • Compound 5: 100 mg/kg, PO QD 21 D; • Palbociclib: 20mg/kg,QD QD 21 D, • Trametinib: 0.5 mg/kg QD QD 21 D, • TMZ 50 mg/kg QD QD 21 D, The dosing regimen of each drug in the dosing regimen for the combination is the same as the dosing regimen for the single drug. [table]"}, "[5]": {"conditions": "Compound 5 50 mg/kg PO QD, Dabrafenib 30 mg/kg QD, trametinib 1 mg/kg"}, "[6]": {"conditions": "Compound 5 50 mg/kg orally once per day, carboplatin 30 mg/kg i.p. once a week, paclitaxel 10 mg/kg i.v. once a week, 28 days"}, "[7]": {"conditions": "Compound 5 50 mg/kg orally once per day, carboplatin 30 mg/kg i.p. once a week, paclitaxel 10 mg/kg i.v. once a week, 19 days"}, "[8]": {"conditions": "Compound 5 100 mg/kg PO QD, Palbociclib 20 mg/kg QD"}},
  "data": [
    {"smiles": "Cc1cc(Nc2ncc(Cl)c(Nc3ccccc3S(=O)(=O)C(C)C)n2)c(OC(C)C)cc1C1=CCN(C2CCOCC2)CC1", "note": "[Compound 5, 5-chloro-N^2-(2-isopropoxy-5-methyl-4-(1-(tetrahydro-2H-pyran-4-yl)-1,2,3,6-tetrahydropyridin-4-yl)phenyl)-N^4-(2-(isopropylsulfonyl)phenyl)pyrimidine-2,4-diamine]", "values": [
      {"measurement": "RTV % @ D25", "setting": "[1]; [5]", "result": "17.80 ± 1.3", "unit": "%"},
      {"measurement": "T/C % @ D25", "setting": "[1]; [5]", "result": 106.09, "unit": "%"},
      {"measurement": "antitumor activity (conclusion in words)", "setting": "[1]; in vivo", "result": "no antitumor activity"},
      {"measurement": "RTV on Day 28 after administration (mean ± standard error)", "setting": "[2]; [6]", "result": "14.83 ± 3.19"},
      {"measurement": "T/C on Day 28 after administration (%)", "setting": "[2]; [6]", "result": 78.97, "unit": "%"},
      {"measurement": "mRECIST", "setting": "[2]; animals per class", "result": "2/2 PD"},
      {"measurement": "antitumor activity (conclusion in words)", "setting": "[2]; mouse, in vivo", "result": "minor antitumor activity"},
      {"measurement": "RTV on Day 19 after administration (mean ± standard error)", "setting": "[3]; [7]", "result": "14.57 ± 0.47"},
      {"measurement": "T/C on Day 19 after administration (%)", "setting": "[3]; [7]", "result": 106.67, "unit": "%"},
      {"measurement": "mRECIST on Day 19 after administration", "setting": "[3]; Day 19, animals per class", "result": "2/2 PD"},
      {"measurement": "mRECIST", "setting": "[3]; best response, animals per class", "result": "2/2 PD"},
      {"measurement": "RTV @ D15", "setting": "[4]; [8]", "result": "18.1 ± 1.1"},
      {"measurement": "T/C (%) @ D15", "setting": "[4]; [8]", "result": 120.7, "unit": "%"},
      {"measurement": "mRECIST", "setting": "[4]; animals per class", "result": "5/5 PD"},
      {"measurement": "antitumor activity (conclusion in words)", "setting": "[4]; in vivo", "result": "no antitumor activity"}
    ]}
  ]
}
